The record followed here is patent US20230059136A1, “THE COMPOUNDS AND COMPOSITIONS FOR TREATING CONDITIONS ASSOCIATED WITH NLRP ACTIVITY” (Novartis AG, priority 2018, published 2023).

One may read the IC50 as the point on the concentration scale where inhibition reaches its midpoint.

The test relates to IL-1β production in PMA-differentiated THP-1 cells. Nature of the test: IL-1β production in PMA-differentiated THP-1 cells stimulated with gramicidin (hTHP-1 assay containing 2% fetal bovine serum). In kind it is cell-based, human. The note with it: 2% fetal bovine serum, read-out: hTHP-1 IC50 (Average IC50 of compounds in hTHP-1 assay). The method, then: Procedure 1: IL-1β Production in PMA-Differentiated THP-1 Cells Stimulated with Gramicidin.
THP-1 cells were purchased from the American Type Culture Collection and sub-cultured according to instructions from the supplier. Cells were cultured in complete RPMI 1640 (containing 10% heat inactivated FBS, penicillin (100 units/ml) and streptomycin (100 μg/ml)), and maintained in log phase prior to experimental setup. Prior to the experiment, compounds were dissolved in dimethyl sulfoxide (DMSO) to generate a 30 mM stock. The compound stock was first pre-diluted in DMSO to 3, 0.34, 0.042 and 0.0083 mM intermediate concentrations and subsequently spotted using Echo550 liquid handler into an empty 384-well assay plate to achieve desired final concentration (e.g. 100, 33, 11, 3.7, 1.2, 0.41, 0.14, 0.046, 0.015, 0.0051, 0.0017 μM). DMSO was backfilled in the plate to achieve a final DMSO assay concentration of 0.37%. The plate was then sealed and stored at room temperature until required.
THP-1 cells were treated with PMA (Phorbol 12-myristate 13-acetate) (20 ng/ml) for 16-18 hours. On the day of the experiment the media was removed and adherent cells were detached with trypsin for 5 minutes. Cells were then harvested, washed with complete RPMI 1640, spun down, and resuspended in RPMI 1640 (containing 2% heat inactivated FBS, penicillin (100 units/ml) and streptomycin (100 μg/ml). The cells were plated in the 384-well assay plate containing the spotted compounds at a density of 50,000 cells/well (final assay volume 50 μl). Cells were incubated with compounds for 1 hour and then stimulated with gramicidin (5 μM) (Enzo) for 2 hours. Plates were then centrifuged at 340 g for 5 min. Cell free supernatant (40 μL) was collected using a 96-channel PlateMaster (Gilson) and the production of IL-1β was evaluated by HTRF (cisbio). The plates were incubated for 18 h at 4° C. and read using the preset HTRF program (donor emission at 620 nm, acceptor emission at 668 nm) of the SpectraMax i3x spectrophotometer (Molecular Devices, software SoftMax 6). A vehicle only control and a dose titration of CRID3 (100-0.0017 μM) were run concurrently with each experiment.
Procedure 2: IL-1β Production in PMA-Differentiated THP-1 Cells Stimulated with Gramicidin.
THP-1 cells were purchased from the American Type Culture Collection and sub-cultured according to instructions from the supplier. Prior to experiments, cells were cultured in complete RPMI 1640 (containing 10% heat inactivated FBS, penicillin (100 units/ml) and streptomycin (100 μg/ml)), and maintained in log phase prior to experimental setup. Prior to the experiment THP-1 were treated with PMA (Phorbol 12-myristate 13-acetate) (20 ng/ml) for 16-18 hours. Compounds were dissolved in dimethyl sulfoxide (DMSO) to generate a 30 mM stock. On the day of the experiment the media was removed and adherent cells were detached with trypsin for 5 minutes. Cells were then harvested, washed with complete RPMI 1640, spun down, resuspended in RPMI 1640 (containing 2% heat inactivated FBS, penicillin (100 units/ml) and streptomycin (100 μg/ml). The cells were plated in a 384-well plate at a density of 50,000 cells/well (final assay volume 50 μl). Compounds were first dissolved in assay medium to obtain a 5× top concentration of 500 μM. 10 step dilutions (1:3) were then undertaken in assay medium containing 1.67% DMSO. 5× compound solutions were added to the culture medium to achieve desired final concentration (e.g. 100, 33, 11, 3.7, 1.2, 0.41, 0.14, 0.046, 0.015, 0.0051, 0.0017 μM). Final DMSO concentration was at 0.37%. Cells were incubated with compounds for 1 hour and then stimulated with gramicidin (5 μM) (Enzo) for 2 hours. Plates were then centrifuged at 340 g for 5 min. Cell free supernatant (40 μL) was collected using a 96-channel PlateMaster (Gilson) and the production of IL-1β was evaluated by HTRF (cisbio). A vehicle only control and a dose titration of CRID3 (100-0.0017 μM) were run concurrently with each experiment. […]

Where [1] appears, read: Homo sapiens, THP-1, Table B2, cells printed as numeric bound.
Where [2] appears, read: Homo sapiens, THP-1, Table B2, class symbols.
The mark [3] stands for this setting: Homo sapiens, THP-1, Table B1, class symbols.

Read-outs that look alike come from different tables or passages of the source.

For “2-(4-Fluoro-2,6-diisopropylphenyl)-N-(4-(2-hydroxypropan-2-yl)phenylsulfonimidoyl)acetamide [Example 1]”, the IC50 (Table B1, class symbols) lay in the range of 5 to 30 µM.

`CC(C)c1cc(F)cc(C(C)C)c1C(C)C(=O)N=S(N)(=O)c1cnc(C(C)(C)O)s1` (racemic) [Example 193, (S, S) and (S, R)-N-(amino (2-(2-hydroxypropan-2-yl)thiazol-5-yl)(oxo)-λ^6-sulfaneylidene)-2-(4-fluoro-2,6-diisopropylphenyl) propanamide]: the IC50 (Homo sapiens, THP-1, Table B1, cells printed as numeric bound) was over 30 µM. For the compound `CC(C)c1cc2c(c(C(C)C)c1CC(=O)N=S(N)(=O)c1ccn(CCO)n1)OC(F)(F)O2` (racemic) [Example 348, (R) and (S)—N-(amino(1-(2-hydroxyethyl)-1H-pyrazol-3-yl)(oxo)-λ^6-sulfaneylidene)-2-(2,2-difluoro-4,6-diisopropylbenzo[d][1,3]dioxol-5-yl)acetamide], for the setting “Table B2, class symbols”, the IC50 was in the range of 0.2 to 1 µM. On the same count and under the same terms, with `CC(C)c1cc2c(c(C(C)C)c1CC(=O)N=S(N)(=O)c1ccn(CCO)n1)OC(F)(F)O2` (racemic) [Example 349, (R) and (S)—N-(amino(1-(2-hydroxyethyl)-1H-pyrazol-3-yl)(oxo)-λ^6-sulfaneylidene)-2-(2,2-difluoro-4,6-diisopropylbenzo[d][1,3]dioxol-5-yl)acetamide] the figure was 5 to 30 µM; with `CC(C)c1cc(C#N)c(F)c(C(C)C)c1CC(=O)N=S(N)(=O)c1sc(C(C)(C)O)nc1CO` (racemic) [Example 352, (S) and (R)—N-(amino(4-(hydroxymethyl)-2-(2-hydroxypropan-2-yl)thiazol-5-yl)(oxo)-λ^6-sulfaneylidene)-2-(4-cyano-3-fluoro-2,6-diisopropylphenyl)acetamide], 0.2 to 1 µM; with `CC(C)c1cc(C#N)c(F)c(C(C)C)c1CC(=O)N=S(N)(=O)c1sc(C(C)(C)O)nc1CO` (racemic) [Example 353, (S) and (R)—N-(amino(4-(hydroxymethyl)-2-(2-hydroxypropan-2-yl)thiazol-5-yl)(oxo)-λ^6-sulfaneylidene)-2-(4-cyano-3-fluoro-2,6-diisopropylphenyl)acetamide], 5 to 30 µM. Turning to `CC(C)c1cc(F)cc(C(C)C)c1CC(=O)N=S(N)(=O)c1sc(C(C)(C)O)nc1CO` (racemic) [Example 356, (R) and (S)—N-(amino(4-(hydroxymethyl)-2-(2-hydroxypropan-2-yl)thiazol-5-yl)(oxo)-λ^6-sulfaneylidene)-2-(4-fluoro-2,6-diisopropylphenyl)acetamide], the IC50 (Table B2, class symbols) was 0.2 to 1 µM. Consider `CC(C)c1cc(F)cc(C(C)C)c1CC(=O)N=S(N)(=O)c1sc(C(C)(C)O)nc1CO` (racemic) [Example 357, (R) and (S)—N-(amino(4-(hydroxymethyl)-2-(2-hydroxypropan-2-yl)thiazol-5-yl)(oxo)-λ^6-sulfaneylidene)-2-(4-fluoro-2,6-diisopropylphenyl)acetamide], for which the IC50 (Table B2, class symbols) lay in the range of 5 to 30 µM. Turning to `CNCc1ccc(S(N)(=O)=NC(=O)Cc2c(-c3ccccc3)ccc3c2CCC3)cc1` (racemic) [Example 380, (R) and (S)—N-(amino(4-((methylamino)methyl)phenyl)(oxo)-λ^6-sulfaneylidene)-2-(5-phenyl-2,3-dihydro-1H-inden-4-yl)acetamide], the IC50 under setting [1] is over 30 µM.

Consider `CNCc1ccc(S(N)(=O)=NC(=O)Cc2c(-c3ccccc3)ccc3c2CCC3)cc1` (racemic) [Example 381, (R) and (S)—N-(amino(4-((methylamino)methyl)phenyl)(oxo)-λ^6-sulfaneylidene)-2-(5-phenyl-2,3-dihydro-1H-inden-4-yl)acetamide], for which the IC50 under setting [2] lay within 5 to 30 µM. Turning to `COc1ccc(C(C)(C)O)cc1S(N)(=O)=NC(=O)Cc1c(C(C)C)cc(C#N)cc1C(C)C` (racemic) [Example 387, (R) and (S)—N-(amino(5-(2-hydroxypropan-2-yl)-2-methoxyphenyl)(oxo)-λ^6-sulfaneylidene)-2-(4-cyano-2,6-diisopropylphenyl)acetamide], under setting [2], the IC50 was in the range of 5 to 30 µM. With `COc1ccc(C(C)(C)O)cc1S(N)(=O)=NC(=O)Cc1c(C(C)C)cc(C#N)cc1C(C)C` (racemic) [Example 388, (R) and (S)—N-(amino(5-(2-hydroxypropan-2-yl)-2-methoxyphenyl)(oxo)-λ^6-sulfaneylidene)-2-(4-cyano-2,6-diisopropylphenyl)acetamide], the IC50 under setting [1] is over 30 µM. On to `CC(C)c1cc(F)cc(C(C)C)c1CC(=O)NS(=N)(=O)c1ccc(C(C)(C)O)cc1` (single isomer, unassigned) [Example 2], for which the IC50 under setting [3] lay within 1 to 5 µM. On the same count and under the same terms, under `CC(C)c1cc(F)cc(C(C)C)c1CC(=O)NS(=N)(=O)c1ncc(C(C)(C)O)s1` (single isomer, unassigned) [Example 9] stands 0.2 to 1 µM. With `CC(C)c1cc(C#N)c(F)c(C(C)C)c1CC(=O)N=S(N)(=O)c1ncc(C(C)(C)O)s1` (single isomer, unassigned) [Example 42], where the note is “Table B1, class symbols”, the IC50 was in the range of 0.04 to 0.2 µM. As for `CC(C)c1cc(C#N)c(F)c(C(C)C)c1CC(=O)N=S(N)(=O)c1ncc(C(C)(C)O)s1` (single isomer, unassigned) [Example 43], where the note is “Table B1, class symbols”, the IC50 was 1 to 5 µM.

For the compound `CC(C)c1cc(C#N)c(F)c(C(C)C)c1CC(=O)N=S(N)(=O)c1sc(C(C)(C)O)cc1F` (single isomer, unassigned) [Example 44, (S)- or (R)-2-(4-cyano-3-fluoro-2,6-diisopropylphenyl)-N-(3-fluoro-5-(2-hydroxypropan-2-yl)thiophen-2-ylsulfonimidoyl)acetamide], under “Table B1, class symbols”, the IC50 was in the range of 0.04 to 0.2 µM. `CC(C)c1cc(C#N)c(F)c(C(C)C)c1CC(=O)N=S(N)(=O)c1sc(C(C)(C)O)cc1F` (single isomer, unassigned) [Example 45, (R)- or (S)-2-(4-cyano-3-fluoro-2,6-diisopropylphenyl)-N-(3-fluoro-5-(2-hydroxypropan-2-yl)thiophen-2-ylsulfonimidoyl)acetamide]: the IC50 (Table B1, class symbols) was in the range of 1 to 5 µM. Still for that read-out and setting: with `CC(C)c1cc(OC(F)F)cc(C(C)C)c1CC(=O)N=S(N)(=O)c1cnc(C(C)(C)O)s1` (single isomer, unassigned) [Example 48, (S)- or (R)-2-(4-(difluoromethoxy)-2,6-diisopropylphenyl)-N-(2-(2-hydroxypropan-2-yl)thiazol-5-ylsulfonimidoyl)acetamide] the figure was 0.04 to 0.2 µM. The same measure, in the same setting: under `CC(C)c1cc(OC(F)F)cc(C(C)C)c1CC(=O)N=S(N)(=O)c1cnc(C(C)(C)O)s1` (single isomer, unassigned) [Example 49, (R)- or (S)-2-(4-(difluoromethoxy)-2,6-diisopropylphenyl)-N-(2-(2-hydroxypropan-2-yl)thiazol-5-ylsulfonimidoyl)acetamide] stands 5 to 30 µM.
